Source: article PMC5974779, “Prediction of Drug-Induced Hepatotoxicity Using Long-Term Stable Primary Hepatic 3D Spheroid Cultures in Chemically Defined Conditions” (Toxicological Sciences, 2018)

Test system: PHH 2D sandwich cultures
Settings: 100× cmax, 24 h, high content imaging; ref Xu et al., 2008; cited from earlier work

SMILES	hepatotoxicity detection in 2D sandwich cultures of PHH
CC(c1cc2ccccc2s1)N(O)C(N)=O (centres unmarked) [Zileuton]	flagged as hepatotoxic

Same assay, conditions: PHH 2D sandwich cultures, 100x Cmax; ref Xu 2008; cited from earlier work

SMILES	2Dsw (Xu 2008) 100x
CN(C)CCCN1c2ccccc2Sc2ccc(Cl)cc21 [Chlorpromazine]	Positive
CC(C)(C)NCC(O)COc1cccc2c1CC(O)C(O)C2 (centres unmarked) [Nadolol]	Negative
Cc1cn([C@H]2C=C[C@@H](CO)O2)c(=O)[nH]c1=O [Stavudine]	Negative
CC(c1cc2ccccc2s1)N(O)C(N)=O (centres unmarked) [Zileuton]	Positive
Cc1ccccc1C(OCCN(C)C)c1ccccc1 (centres unmarked) [Orphenadrine]	Negative
CN(CCOc1ccc(CC2SC(=O)NC2=O)cc1)c1ccccn1 (centres unmarked) [Rosiglitazone]	Negative
CCOC(=O)c1ncn2c1CN(C)C(=O)c1cc(F)ccc1-2 [Flumazenil]	Negative

Same assay, conditions: ref Xu et al., 2008; cited from earlier work

SMILES	reactive oxygen species levels in 2D sandwich cultures of PHH
CC(c1cc2ccccc2s1)N(O)C(N)=O (centres unmarked) [Zileuton]	only slight increases in reactive oxygen species levels

Test system: clinical DILI in man
Settings: DILI classification score; ref Suzuki et al. (2010); cited from earlier work

SMILES	Suzuki et al. (2010)
Cc1cn([C@H]2C=C[C@@H](CO)O2)c(=O)[nH]c1=O [Stavudine]	2

Same assay, conditions: FDA drug labeling DILI concern; ref Chen et al., 2011; cited from earlier work

SMILES	FDA (Severity)
Cc1cn([C@H]2C=C[C@@H](CO)O2)c(=O)[nH]c1=O [Stavudine]	most DILI concern

Same assay, conditions: FDA drug labeling DILI score; ref Chen et al., 2011; cited from earlier work

SMILES	FDA (0-8)
CC(C)(C)NCC(O)COc1cccc2c1CC(O)C(O)C2 (centres unmarked) [Nadolol]	3
Cc1cn([C@H]2C=C[C@@H](CO)O2)c(=O)[nH]c1=O [Stavudine]	8
CN(CCOc1ccc(CC2SC(=O)NC2=O)cc1)c1ccccn1 (centres unmarked) [Rosiglitazone]	3
CCOC(=O)c1ncn2c1CN(C)C(=O)c1cc(F)ccc1-2 [Flumazenil]	0

Same assay, conditions: clinical DILI classification in man (POS/NEG); cited from earlier work

SMILES	DILI in vivo
CC(C)(C)NCC(O)COc1cccc2c1CC(O)C(O)C2 (centres unmarked) [Nadolol]	NEG
Cc1cn([C@H]2C=C[C@@H](CO)O2)c(=O)[nH]c1=O [Stavudine]	POS
CN(CCOc1ccc(CC2SC(=O)NC2=O)cc1)c1ccccn1 (centres unmarked) [Rosiglitazone]	NEG
CCOC(=O)c1ncn2c1CN(C)C(=O)c1cc(F)ccc1-2 [Flumazenil]	NEG

Same assay, conditions: clinical DILI classification used in this study, Supplementary Table 2; ref Chen et al., 2011; Guo et al., 2005; O'Brien et al., 2006; Sakatis et al., 2012; Suzuki et al., 2010; Xu et al., 2008; cited from earlier work

SMILES	Classified as
CC(C)(C)NCC(O)COc1cccc2c1CC(O)C(O)C2 (centres unmarked) [Nadolol]	NEG
Cc1cn([C@H]2C=C[C@@H](CO)O2)c(=O)[nH]c1=O [Stavudine]	POS
CN(CCOc1ccc(CC2SC(=O)NC2=O)cc1)c1ccccn1 (centres unmarked) [Rosiglitazone]	NEG
CCOC(=O)c1ncn2c1CN(C)C(=O)c1cc(F)ccc1-2 [Flumazenil]	NEG

Same assay, conditions: clinical DILI classification, Supplementary Table 1; ref Chen et al., 2011; Guo et al., 2005; O'Brien et al., 2006; Sakatis et al., 2012; Suzuki et al., 2010; Xu et al., 2008; cited from earlier work

SMILES	DILI in vivo
CC(C)(C)NCC(O)COc1cccc2c1CC(O)C(O)C2 (centres unmarked) [Nadolol]	NEG
Cc1cn([C@H]2C=C[C@@H](CO)O2)c(=O)[nH]c1=O [Stavudine]	POS
CN(CCOc1ccc(CC2SC(=O)NC2=O)cc1)c1ccccn1 (centres unmarked) [Rosiglitazone]	NEG
CCOC(=O)c1ncn2c1CN(C)C(=O)c1cc(F)ccc1-2 [Flumazenil]	NEG

Same assay, conditions: clinical DILI classification; ref Xu et al. (2008); cited from earlier work

SMILES	Xu et al. (2008)
CC(C)(C)NCC(O)COc1cccc2c1CC(O)C(O)C2 (centres unmarked) [Nadolol]	Negative
Cc1cn([C@H]2C=C[C@@H](CO)O2)c(=O)[nH]c1=O [Stavudine]	Positive
CN(CCOc1ccc(CC2SC(=O)NC2=O)cc1)c1ccccn1 (centres unmarked) [Rosiglitazone]	Negative
CCOC(=O)c1ncn2c1CN(C)C(=O)c1cc(F)ccc1-2 [Flumazenil]	Negative

Same assay, conditions: clinical hepatotoxicity classification; ref O'Brien et al. (2003); cited from earlier work

SMILES	O'Brien et al. (2003)
Cc1cn([C@H]2C=C[C@@H](CO)O2)c(=O)[nH]c1=O [Stavudine]	Severely
CN(CCOc1ccc(CC2SC(=O)NC2=O)cc1)c1ccccn1 (centres unmarked) [Rosiglitazone]	Non-toxic
CCOC(=O)c1ncn2c1CN(C)C(=O)c1cc(F)ccc1-2 [Flumazenil]	Non-toxic

Same assay, conditions: clinical hepatotoxicity classification; ref Sakatis et al. (2012); cited from earlier work

SMILES	Sakatis et al. (2012)
Cc1cn([C@H]2C=C[C@@H](CO)O2)c(=O)[nH]c1=O [Stavudine]	Hepatotoxic

Same assay, conditions: in vivo; cited from earlier work

SMILES	Classified as	Clinical DILI class (panel heading of Figure 4)	DILI in vivo	FDA (0-8)	Guo et al. (2005)	O'Brien et al. (2003)	Sakatis et al. (2012)	Suzuki et al. (2010)	Type of DILI	Xu et al. (2008)
CN(C)CCCN1c2ccccc2Sc2ccc(Cl)cc21 [Chlorpromazine]	POS	High DILI concern	POS	2	3	Moderately	Hepatotoxic	2	Cholestatic injury or Mixed hepatitis	Positive
CC(c1cc2ccccc2s1)N(O)C(N)=O (centres unmarked) [Zileuton]	POS	High DILI concern	POS	5	–	Severely	Hepatotoxic	–	Hepatocellular injury	Positive
Cc1ccccc1C(OCCN(C)C)c1ccccc1 (centres unmarked) [Orphenadrine]	NEG	DILI negative	NEG	0	–	–	non-hepatotixic	–	Non-hepatotoxic	Negative

Same assay, conditions: in vivo; cited from earlier work

SMILES	FDA (Severity)
CC(c1cc2ccccc2s1)N(O)C(N)=O (centres unmarked) [Zileuton]	most DILI concern

Same assay, conditions: reported pattern of liver damage, Supplementary Table 2; ref literature; cited from earlier work

SMILES	Type of DILI
CC(C)(C)NCC(O)COc1cccc2c1CC(O)C(O)C2 (centres unmarked) [Nadolol]	Non-hepatotoxic
Cc1cn([C@H]2C=C[C@@H](CO)O2)c(=O)[nH]c1=O [Stavudine]	Cholestatic injury or Mixed hepatitis
CN(CCOc1ccc(CC2SC(=O)NC2=O)cc1)c1ccccn1 (centres unmarked) [Rosiglitazone]	Non-hepatotoxic
CCOC(=O)c1ncn2c1CN(C)C(=O)c1cc(F)ccc1-2 [Flumazenil]	Non-hepatotoxic

Same assay, conditions: structural analogue pairs, Figure 5; ref Chen et al., 2011; Xu et al., 2008 and others; cited from earlier work

SMILES	Clinical DILI classification (Figure 5)
CN(CCOc1ccc(CC2SC(=O)NC2=O)cc1)c1ccccn1 (centres unmarked) [Rosiglitazone]	DILI negative

Test system: primary human hepatocytes (PHH) 3D spheroids
Settings: not given

SMILES	Chemically defined spheroids (this study) 20x	hepatotoxicity evaluation in CD-spheroids
CN(C)CCCN1c2ccccc2Sc2ccc(Cl)cc21 [Chlorpromazine]	Positive	–
CC(C)(C)NCC(O)COc1cccc2c1CC(O)C(O)C2 (centres unmarked) [Nadolol]	Negative	–
Cc1cn([C@H]2C=C[C@@H](CO)O2)c(=O)[nH]c1=O [Stavudine]	Negative	–
CC(c1cc2ccccc2s1)N(O)C(N)=O (centres unmarked) [Zileuton]	Negative	predicted to be DILI negative
CCOC(=O)c1ncn2c1CN(C)C(=O)c1cc(F)ccc1-2 [Flumazenil]	Negative	–

Test system: not given
Settings: therapeutic total cmax; ref PMID; cited from earlier work

SMILES	Cmax [nM]
CN(C)CCCN1c2ccccc2Sc2ccc(Cl)cc21 [Chlorpromazine]	840
Cc1cn([C@H]2C=C[C@@H](CO)O2)c(=O)[nH]c1=O [Stavudine]	3460
CC(c1cc2ccccc2s1)N(O)C(N)=O (centres unmarked) [Zileuton]	13100
Cc1ccccc1C(OCCN(C)C)c1ccccc1 (centres unmarked) [Orphenadrine]	490
CN(CCOc1ccc(CC2SC(=O)NC2=O)cc1)c1ccccn1 (centres unmarked) [Rosiglitazone]	950
CCOC(=O)c1ncn2c1CN(C)C(=O)c1cc(F)ccc1-2 [Flumazenil]	1120

Test system: PHH spheroids (hanging-drop)
Settings: PHH hanging-drop spheroids, 100x Cmax; ref Proctor 2017; cited from earlier work

SMILES	Hanging-drop spheroids (Proctor 2017) 100x
CN(C)CCCN1c2ccccc2Sc2ccc(Cl)cc21 [Chlorpromazine]	Positive
CC(C)(C)NCC(O)COc1cccc2c1CC(O)C(O)C2 (centres unmarked) [Nadolol]	Negative
Cc1cn([C@H]2C=C[C@@H](CO)O2)c(=O)[nH]c1=O [Stavudine]	Negative
CC(c1cc2ccccc2s1)N(O)C(N)=O (centres unmarked) [Zileuton]	Negative
Cc1ccccc1C(OCCN(C)C)c1ccccc1 (centres unmarked) [Orphenadrine]	Negative
CN(CCOc1ccc(CC2SC(=O)NC2=O)cc1)c1ccccn1 (centres unmarked) [Rosiglitazone]	Positive
CCOC(=O)c1ncn2c1CN(C)C(=O)c1cc(F)ccc1-2 [Flumazenil]	Negative

Test system: not given
Settings: ref DrugBank and Prescribers' Digital Reference database; cited from earlier work

SMILES	Extent of hepatic metabolism
CN(C)CCCN1c2ccccc2Sc2ccc(Cl)cc21 [Chlorpromazine]	Extensive
CC(C)(C)NCC(O)COc1cccc2c1CC(O)C(O)C2 (centres unmarked) [Nadolol]	Minimal
Cc1cn([C@H]2C=C[C@@H](CO)O2)c(=O)[nH]c1=O [Stavudine]	Minimal
CC(c1cc2ccccc2s1)N(O)C(N)=O (centres unmarked) [Zileuton]	Extensive
Cc1ccccc1C(OCCN(C)C)c1ccccc1 (centres unmarked) [Orphenadrine]	Extensive
CN(CCOc1ccc(CC2SC(=O)NC2=O)cc1)c1ccccn1 (centres unmarked) [Rosiglitazone]	Extensive
CCOC(=O)c1ncn2c1CN(C)C(=O)c1cc(F)ccc1-2 [Flumazenil]	Extensive
